Target: human norovirus Sydney 2012 RdRp (Norovirus GII.4 (Norwalk virus, human norovirus), UniProt K4L8Z7)
Assay: Fluorescent de novo RdRp activity assay (PicoGreen, poly(C) template)
Type: biochemical
Procedure: The 62 compounds identified in silico were screened for inhibition of norovirus RdRp activity using an in vitro fluorescent, de novo RdRp assay. Compounds were tested at fixed concentrations of 10 µM and 100 µM, and compared to mock treated samples containing the vehicle only (0.5% DMSO [vol/vol]) (Fig. 4A,B). […] For certain compounds, significant insolubility was observed, coupled with either inherent fluorescence quenching (positive y-axis values on Fig. 4A,B) or enhancement of the fluorescence signal (negative y-axis values).
The newly synthesised compounds, including the re-prepared hit 13 and some synthesis intermediates (Table 1), were initially evaluated on norovirus Sydney 2012 RdRp activity in vitro using a quantitative fluorescent assay. Compounds were tested at a fixed concentration of 10 μM and compared to the relative activity of mock treated samples.
Recombinant calicivirus RdRps (GenBank accession numbers) norovirus GII.Pe/GII.4 Sydney 2012 (KT239579), MNV GV CW1 (DQ285629), RHDV Czech V351 (KF594473.1), and SaV GI.1 Mc114 (AY237422) were expressed and purified as described previously[60],[61]. RdRp resistance mutants were generated using the QuikChange site-directed mutagenesis kit (Agilent Technologies, Santa Clara, CA, USA) and confirmed by Sanger sequencing.
Fluorescent RdRp activity assays were carried out as previously described[14],[62]. Briefly, RdRp activity was quantified by monitoring the formation of double-stranded RNA (dsRNA) from a single stranded homopolymeric template, poly(C) (Sigma Aldrich, St Louis, MO, USA), using the fluorescent dye PicoGreen (Life Technologies, Carlsbad, CA, USA). RdRp assays were performed in 384-well plates, and each reaction mixture contained 400 ng enzyme, 45 µM GTP, 10 ng/µL poly(C) RNA, 2.5 mM MnCl2, 5 mM dithiothreitol, (DTT), 0.01% bovine serum albumin (BSA), and 0.005% Tween 20 in 20 mM Tris-HCl, pH 7.5, with a final reaction volume of 25 µL. The previous published norovirus NNI NIC02 was used as a positive control. RdRps were incubated for 10 mins at 30 °C in the presence of the test compounds or the compound vehicle DMSO (0.5% vol/vol) before addition into the reaction mixture, which was then allowed to run 15 min at 30 °C then terminated with 10 mM EDTA, followed by PicoGreen staining and dsRNA quantitation. GraphPad Prism V6.05 (La Jolla, CA, USA) was used to plot the IC50 values. In cases where fluorescent enhancement was recorded for a compound instead of inhibition, a secondary gel-based polymerase activity assay was used as a counter-screen as described below, to exclude the possibility of RdRp activity enhancement (Supplementary Fig. S1). Primed elongation activity was examined in a gel-based assay as previously described[16],[63] using the RNA template (PE44-NoV, Fig. 4D). Gels were imaged using BioRad (Hercules, CA, U.SA) Geldoc Universal Hood II, running BioRad Image Lab software, V4.1, build 16. Antagonism was calculated using Compusyn software V1.0[59]. 54 and PPNDS (4:1 ratio) were tested alone and together against norovirus Sydney 2012 RdRp.

O=C1NN(c2ccccc2)C(=O)/C1=C/c1ccc(-c2ccc(S(=O)(=O)Nc3ccccc3)cc2)o1 [Compound 54]
IC50: 5.6 µM
